Results reported in ChEMBL document CHEMBL3407358, “Boehmeriasin A as new lead compound for the inhibition of topoisomerases and SIRT2” (Eur J Med Chem, 2015).
Calls of active or inactive are those of the source. The rule behind the calls is not given here.

Legend:
[1] = target: DNA topoisomerase 2-alpha (Homo sapiens) (UniProt P11388); test: Inhibition of recombinant human topoisomerase 2-mediated relaxation of supercoiled pBR322 DNA at 10 uM after 60 mins by agarose gel electrophoresis
[2] = target: DNA topoisomerase 2-alpha (Homo sapiens) (UniProt P11388); test: Inhibition of recombinant human topoisomerase 2-mediated relaxation of supercoiled pBR322 DNA after 60 mins by agarose gel electrophoresis
[3] = target: DNA topoisomerase 2-alpha (Homo sapiens) (UniProt P11388); test: Stabilization of recombinant human topoisomerase 2-pBR322 DNA cleavage complex assessed as linear DNA formation at 100 uM after 60 mins by agarose gel electrophoresis
[4] = target: DNA topoisomerase 2-alpha (Homo sapiens) (UniProt P11388); test: Inhibition of recombinant human topoisomerase 2-mediated relaxation of supercoiled pBR322 DNA at 50 uM after 60 mins by agarose gel electrophoresis
[5] = target: T1, DNA topoisomerase 1 (Homo sapiens) (UniProt P11387); test: Stabilization of recombinant human topoisomerase 1-pBR322 DNA cleavage complex assessed as linear DNA formation at 0.5 uM after 60 mins by agarose gel electrophoresis
T1 sequence (whole entry): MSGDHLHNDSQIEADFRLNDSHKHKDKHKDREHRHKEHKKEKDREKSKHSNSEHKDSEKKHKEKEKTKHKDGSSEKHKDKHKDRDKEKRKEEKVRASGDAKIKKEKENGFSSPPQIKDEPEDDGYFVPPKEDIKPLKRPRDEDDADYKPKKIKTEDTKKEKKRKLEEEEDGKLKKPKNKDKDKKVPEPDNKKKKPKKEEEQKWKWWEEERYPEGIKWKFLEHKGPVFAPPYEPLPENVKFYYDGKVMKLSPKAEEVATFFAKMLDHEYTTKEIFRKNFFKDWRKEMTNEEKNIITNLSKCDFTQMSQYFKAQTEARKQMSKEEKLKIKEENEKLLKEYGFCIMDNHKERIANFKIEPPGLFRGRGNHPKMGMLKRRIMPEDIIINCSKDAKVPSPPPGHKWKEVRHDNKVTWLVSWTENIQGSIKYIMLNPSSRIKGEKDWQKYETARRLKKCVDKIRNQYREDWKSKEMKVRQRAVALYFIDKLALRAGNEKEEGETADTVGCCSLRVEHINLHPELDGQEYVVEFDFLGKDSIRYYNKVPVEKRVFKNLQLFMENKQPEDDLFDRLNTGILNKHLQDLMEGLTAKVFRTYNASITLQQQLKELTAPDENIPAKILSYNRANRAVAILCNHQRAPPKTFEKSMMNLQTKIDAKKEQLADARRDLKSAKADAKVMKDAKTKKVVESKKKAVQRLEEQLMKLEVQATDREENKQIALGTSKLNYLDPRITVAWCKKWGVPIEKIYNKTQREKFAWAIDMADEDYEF

[6] = target: T2, NAD-dependent protein deacetylase sirtuin-2 (Homo sapiens) (UniProt Q8IXJ6); test: Inhibition of SIRT2 (unknown origin) using KI179 as substrate preincubated at 200 uM for 5 mins before substrate addition measured after 1 hr by Fluor de Lys fluorescence assay
T2 sequence (whole entry): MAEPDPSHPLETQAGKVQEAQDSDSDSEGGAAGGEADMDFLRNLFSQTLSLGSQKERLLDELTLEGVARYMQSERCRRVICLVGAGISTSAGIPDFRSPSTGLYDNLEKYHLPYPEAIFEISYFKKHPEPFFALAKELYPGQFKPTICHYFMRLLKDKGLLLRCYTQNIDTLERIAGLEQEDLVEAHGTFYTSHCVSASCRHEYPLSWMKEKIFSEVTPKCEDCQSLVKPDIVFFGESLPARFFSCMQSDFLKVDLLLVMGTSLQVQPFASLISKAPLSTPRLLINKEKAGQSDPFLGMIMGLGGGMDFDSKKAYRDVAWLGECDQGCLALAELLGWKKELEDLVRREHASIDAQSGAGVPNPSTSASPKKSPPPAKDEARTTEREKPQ

HeLa = test: Antiproliferative activity against human HeLa cells after 4 days by Coulter counter method; type: functional, cell-based; conditions: 96 h
CCRF-CEM = test: Antiproliferative activity against human CEM cells after 96 hrs by Coulter counter method; type: functional, cell-based
[7] = target: T1, DNA topoisomerase 1 (Homo sapiens); test: Inhibition of recombinant human topoisomerase 1-mediated relaxation of supercoiled pBR322 DNA at 10 uM after 60 mins by agarose gel electrophoresis
[8] = Antiproliferative activity against bovine BAEC cells after 3 days by Coulter counter method; type: functional, cell-based; conditions: Bos taurus, 72 h
L1210 = test: Antiproliferative activity against mouse L1210 cells after 48 hrs by Coulter counter method; type: functional, cell-based; conditions: L1210, 48 h
[9] = Antiproliferative activity against human HMEC1 cells after 4 days by Coulter counter method; type: functional, cell-based; conditions: HMEC-1, 96 h
[10] = target: T3, NAD-dependent protein deacetylase sirtuin-1 (Homo sapiens) (UniProt Q96EB6); test: Inhibition of SIRT1 (unknown origin) using KI177 as substrate preincubated at 200 uM for 5 mins before substrate addition measured after 1 hr by Fluor de Lys fluorescence assay
T3 sequence (whole entry): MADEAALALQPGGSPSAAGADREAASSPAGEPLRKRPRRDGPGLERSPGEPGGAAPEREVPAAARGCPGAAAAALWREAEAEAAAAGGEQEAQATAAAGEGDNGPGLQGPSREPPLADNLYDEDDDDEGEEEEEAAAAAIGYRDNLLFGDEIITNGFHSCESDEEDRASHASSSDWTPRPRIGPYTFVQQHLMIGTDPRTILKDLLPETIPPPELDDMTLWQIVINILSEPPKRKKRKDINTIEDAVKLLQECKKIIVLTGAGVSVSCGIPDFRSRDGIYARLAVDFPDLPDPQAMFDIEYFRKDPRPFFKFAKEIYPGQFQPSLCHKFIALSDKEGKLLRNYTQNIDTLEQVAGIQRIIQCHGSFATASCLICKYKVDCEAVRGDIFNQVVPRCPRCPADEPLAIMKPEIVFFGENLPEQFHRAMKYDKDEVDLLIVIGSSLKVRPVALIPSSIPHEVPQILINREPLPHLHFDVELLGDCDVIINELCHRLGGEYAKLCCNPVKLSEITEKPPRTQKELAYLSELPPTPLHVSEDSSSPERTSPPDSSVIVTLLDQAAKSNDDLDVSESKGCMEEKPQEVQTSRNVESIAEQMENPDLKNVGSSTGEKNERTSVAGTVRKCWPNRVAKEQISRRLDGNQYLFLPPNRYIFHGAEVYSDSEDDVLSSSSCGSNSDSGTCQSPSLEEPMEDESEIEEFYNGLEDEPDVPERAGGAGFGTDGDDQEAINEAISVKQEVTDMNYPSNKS

[11] = target: DNA topoisomerase 2-alpha (Homo sapiens) (UniProt P11388); test: Stabilization of recombinant human topoisomerase 2-pBR322 DNA cleavage complex assessed as linear DNA formation at 10 uM after 60 mins by agarose gel electrophoresis

Chain of DNA topoisomerase 2-alpha (Homo sapiens) (P11388 whole entry): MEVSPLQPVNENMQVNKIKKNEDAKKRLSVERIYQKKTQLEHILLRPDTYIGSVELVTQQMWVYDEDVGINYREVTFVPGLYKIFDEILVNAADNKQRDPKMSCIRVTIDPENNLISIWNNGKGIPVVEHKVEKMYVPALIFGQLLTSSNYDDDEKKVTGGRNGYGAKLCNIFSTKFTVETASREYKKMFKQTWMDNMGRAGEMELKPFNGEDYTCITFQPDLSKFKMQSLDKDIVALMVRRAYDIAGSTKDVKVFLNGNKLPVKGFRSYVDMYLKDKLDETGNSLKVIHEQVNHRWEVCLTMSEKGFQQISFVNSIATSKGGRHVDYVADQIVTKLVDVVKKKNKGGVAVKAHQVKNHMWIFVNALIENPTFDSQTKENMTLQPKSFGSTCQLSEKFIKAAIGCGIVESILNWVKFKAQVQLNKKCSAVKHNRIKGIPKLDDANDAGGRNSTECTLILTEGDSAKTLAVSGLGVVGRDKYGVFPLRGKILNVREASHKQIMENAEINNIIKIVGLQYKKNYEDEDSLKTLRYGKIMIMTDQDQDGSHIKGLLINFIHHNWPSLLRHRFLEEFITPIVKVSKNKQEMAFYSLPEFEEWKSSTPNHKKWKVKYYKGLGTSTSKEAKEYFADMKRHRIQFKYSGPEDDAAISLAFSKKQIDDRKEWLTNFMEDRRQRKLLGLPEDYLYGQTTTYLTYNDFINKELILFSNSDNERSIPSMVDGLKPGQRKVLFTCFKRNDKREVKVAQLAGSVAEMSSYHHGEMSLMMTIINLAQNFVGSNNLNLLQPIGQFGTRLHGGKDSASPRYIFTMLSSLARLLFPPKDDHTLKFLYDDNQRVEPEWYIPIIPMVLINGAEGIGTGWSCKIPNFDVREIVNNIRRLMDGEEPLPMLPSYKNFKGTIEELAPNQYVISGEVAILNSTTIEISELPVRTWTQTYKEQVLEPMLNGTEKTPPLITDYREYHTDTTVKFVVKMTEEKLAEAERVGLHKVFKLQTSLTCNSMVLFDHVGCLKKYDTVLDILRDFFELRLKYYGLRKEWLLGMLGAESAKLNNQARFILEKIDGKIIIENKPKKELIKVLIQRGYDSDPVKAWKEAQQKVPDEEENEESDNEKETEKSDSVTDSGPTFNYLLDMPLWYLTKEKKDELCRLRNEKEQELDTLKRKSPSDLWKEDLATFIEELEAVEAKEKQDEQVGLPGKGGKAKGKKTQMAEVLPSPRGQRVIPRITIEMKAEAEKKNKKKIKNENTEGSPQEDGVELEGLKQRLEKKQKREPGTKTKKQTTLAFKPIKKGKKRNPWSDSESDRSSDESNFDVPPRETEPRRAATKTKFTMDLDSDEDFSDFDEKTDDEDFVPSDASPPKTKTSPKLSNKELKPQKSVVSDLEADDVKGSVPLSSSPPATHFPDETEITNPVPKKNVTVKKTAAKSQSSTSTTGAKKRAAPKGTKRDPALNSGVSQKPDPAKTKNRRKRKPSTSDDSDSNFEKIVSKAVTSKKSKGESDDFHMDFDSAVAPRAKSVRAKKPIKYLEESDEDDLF

SMILES	inhibition [1]	inhibition [2]	Activity [3]	inhibition [4]	Activity [5]	inhibition [6]	IC50 (HeLa)	IC50 (CCRF-CEM)	inhibition [7]	IC50 [8]	IC50 (L1210)	IC50 [9]	inhibition [10]	Activity [11]
COc1ccc2c3c(c4cc(OC)c(OC)cc4c2c1)CN1CCCC[C@H]1C3	inactive	Dose-dependent effect	inactive	Active	inactive	41%	182 nM	201 nM	Active	23 nM	111 nM	82 nM	10%	
COc1cc(NS(C)(=O)=O)ccc1Nc1c2ccccc2nc2ccccc12														Active
COc1ccc2c3c(c4cc(OC)c(OC)cc4c2c1)CN1CCCCC1C3 (racemic)							76 nM	119 nM		9 nM	71 nM	29 nM		
COc1ccc2c3c(c4cc(OC)c(OC)cc4c2c1)CN1CCCC[C@@H]1C3	inactive	Dose-dependent effect	inactive	Active	inactive	65%	66 nM	185 nM	Active	23 nM	19 nM	7.4 nM	12%	
COc1ccc(/C=C\c2cc(OC)c(OC)c(OC)c2)cc1OP(=O)(O)O [FOSBRETABULIN DISODIUM]							79 nM	95 nM		3.9 nM	82 nM	2.9 nM		
CC[C@@]1(O)C(=O)OCc2c1cc1n(c2=O)Cc2cc3ccccc3nc2-1					Active									
